Data reported in ChEMBL document CHEMBL1122738, “A cyclic angiotensin antagonist: [1,8-cysteine]angiotensin II” (1984).
Positions of bridges follow the written chain, without caps; N, C: chain ends. Residues, ends and D or L forms follow the SMILES beside them. Chains are numbered I, II in the order given.

Species on record: Rattus norvegicus
Test: Minimum effective concentration required to abolish the response to an ED75 dose of ANG II (10e-8 M) in the isolated rat uterus assay
Type: functional
Settings: read-out: MEC

Row | SMILES | minimal effective concentration
1 | CC[C@H](C)[C@H](NC(=O)[C@H](Cc1ccc(O)cc1)NC(=O)[C@@H](NC(=O)[C@H](CCCN=C(N)N)NC(=O)[C@@H](N)CSCNC(C)=O)C(C)C)C(=O)N[C@@H](Cc1c[nH]cn1)C(=O)N1CCC[C@H]1C(=O)N[C@@H](CSCNC(C)=O)C(=O)O | 0.24 µM
2 | CC[C@H](C)[C@H](NC(=O)[C@@H]1CCCN1C(=O)[C@H](Cc1c[nH]cn1)NC(=O)[C@@H](NC(=O)[C@H](Cc1ccc(O)cc1)NC(=O)[C@@H](NC(=O)[C@H](CCCN=C(N)N)NC(=O)CNC)C(C)C)[C@@H](C)CC)C(=O)O | 0.021 µM
3 | CC[C@H](C)[C@@H]1NC(=O)[C@H](Cc2ccc(O)cc2)NC(=O)[C@H](C(C)C)NC(=O)[C@H](CCCN=C(N)N)NC(=O)[C@@H](N)CSSC[C@@H](C(=O)O)NC(=O)[C@@H]2CCCN2C(=O)[C@H](Cc2c[nH]cn2)NC1=O (H-CRVYIHPC-OH; disulfide 1-8) | 3.3 µM
4 | CC[C@H](C)[C@@H]1NC(=O)[C@H](Cc2ccc(O)cc2)NC(=O)[C@H](C(C)C)NC(=O)[C@H](CCCN=C(N)N)NC(=O)[C@@H](N)CSSC[C@H](N)C(=O)N[C@@H](CCCN=C(N)N)C(=O)N[C@@H](C(C)C)C(=O)N[C@@H](Cc2ccc(O)cc2)C(=O)N[C@@H]([C@@H](C)CC)C(=O)N[C@@H](Cc2c[nH]cn2)C(=O)N2CCC[C@H]2C(=O)N[C@H](C(=O)O)CSSC[C@@H](C(=O)O)NC(=O)[C@@H]2CCCN2C(=O)[C@H](Cc2c[nH]cn2)NC1=O (I: H-CRVYIHPC-OH / II: H-CRVYIHPC-OH; disulfide I:1-II:1, I:8-II:8) | 9.6 µM
